Test results published in patent US20240252456A1, “ORAL COMPOSITION, SKIN COSMETIC AND HAIR COSMETIC” (MARUZEN PHARMACEUTICALS CO., LTD., priority 2021, published 2024).

Tests used:
B16 melanoma cells = experiment: Melanin production suppressive action test on B16 melanoma cells; type: cell-based; conditions: 4 days, corrected by cell survival rate
Procedure: B16 melanoma cells were cultured using Dulbecco's modified Eagle's medium (DMEM) containing 10% FBS, and then the cells were collected by a trypsin treatment. The collected cells were diluted with DMEM containing 10% FBS and 1 mmol/L theophylline to a cell density of 24.0×10^4 cells/mL, then seeded with 300 μL per well in a 48-well plate, and cultured for 6 hours.
After the culturing was completed, 300 μL of each of test samples (Samples 1 to 3, see Table 5 below for final concentrations) dissolved in DMEM containing 10% FBS and 1 mmol/L theophylline was added to each well, and culturing was performed for 4 days. As a control, culturing was performed in the same manner using DMEM containing 10% FBS and 1 mmol/L theophylline to which no sample was added. After the culturing was completed, the medium was removed, 200 μL of 2 mol/L NaOH solution was added, the cells were disrupted using an ultrasonic disrupter, and the absorbance at a wavelength of 475 nm was measured. From the measured absorbance value, the amount of melanin was calculated based on a calibration curve created using synthetic melanin (available from SIGMA).
In addition, in order to measure the cell survival rate, after culturing in the same manner as above, the medium was removed, the cells were washed with 400 μL of PBS(−) buffer solution, 200 μL of Neutral Red dissolved at a final concentration of 0.05 mg/mL in DMEM containing 10% FBS was added to each well, and culturing was performed for 2.5 hours. After culturing, the neutral red solution was removed, and 200 μL of ethanol/acetic acid solution (ethanol:acetic acid:water=50:1:49) was added to each well to extract the dye. After extraction, the absorbance at a wavelength of 540 nm was measured. From the obtained results, the melanin production suppression rate (%) corrected by the cell survival rate was calculated using the following equation.
Terms in the equation represent the following respective ones. • A: Melanin amount without sample addition • B: Melanin amount with test sample addition • C: Absorbance at wavelength 540 nm without sample addition • D: Absorbance at wavelength 540 nm with test sample addition

TGM1 mRNA = experiment: Transglutaminase-1 (TGM1) mRNA expression promotive action test; type: cell-based, human; conditions: NHEK, 24 hours, A/B×100, corrected with GAPDH
Procedure: Normal human neonatal epidermal keratinocytes (NHEK) were precultured using normal human epidermal keratinocyte growth medium (KGM), and the cells were collected by a trypsin treatment. The collected cells were diluted with KGM to a cell density of 15×10^4 cells/mL, then seeded with 2 mL portions in a 6-well plate (30×10^4 cells/well), and cultured overnight under conditions of 37° C. and 5% CO2. After culturing, the medium was replaced with normal human epidermal keratinocyte basal medium (KBM, the above KGM without addition of growth additives (hEGF, BPE, insulin, antibacterial agents, hydrocortisone)), and culturing was further performed for 24 hours.
After culturing for 24 hours, the medium was removed, and 2 mL of each of test samples (Samples 1 to 3, see Table 15 below for final concentrations) dissolved in KBM was added to each well, and culturing was performed under conditions of 37° C. and 5% CO2 for 24 hours. As a control, culturing was performed in the same manner using KBM to which no sample was added. After culturing, the medium was removed, total RNA was extracted using ISOGEN II (available from NIPPON GENE CO., LTD.), each RNA amount was measured using a spectrophotometer, and the total RNA was prepared so as to be 150 ng/μL.
For TGM1 and GAPDH as an internal standard, the expression levels of mRNA were measured using the above total RNA as a template. Detection was performed through a two-step real-time RT-PCR reaction using a real-time PCR device, Thermal Cycler Dice Real Time System III (available from Takara Bio Inc.), with PrimeScript™ RT Master Mix (Perfect Real Time) (available from Takara Bio Inc.) and TB Green® Fast qPCR Mix (available from Takara Bio Inc.). The primers used were those having the sequences 5′-[…]-3′ and 5′-[…]-3′.
The expression level of TGM1 mRNA was obtained as a value corrected with a value of GAPDH based on total RNA preparations prepared from cells cultured “with test sample addition” and “without sample addition.” From the obtained values, the TGM1 mRNA expression promotion rate (%) was calculated using the following equation.
TGM1 mRNA expression promotion rate (%)=A/B×100
Terms in the equation represent the following respective ones. • A: Corrected value with test sample addition • B: Corrected value without sample addition

[1] = system: Normal human liver cells (hepatocytes); experiment: Glutathione production promotive action test (hepatocytes); type: cell-based; conditions: 24 hours
Procedure: Normal human liver cells (hepatocytes) were cultured using Dulbecco's modified Eagle's medium (DMEM) containing 10% FBS, and then the cells were collected by a trypsin treatment. The collected cells were diluted with DMEM containing 10% FBS to a cell density of 10×10^4 cells/mL, then seeded with 200 μL per well in a 48-well plate, and cultured overnight.
After culturing, the medium was removed, 200 μL of each of test samples (Samples 1 to 3, see Table 30 below for final concentrations) dissolved in DMEM containing 1% FBS was added to each well, and culturing was further performed for 24 hours. As a control, culturing was performed in the same manner using DMEM containing 1% FBS to which no sample was added. After the culturing was completed, the medium was removed from each well, and the cells were washed with 400 μL of PBS(−) and then lysed using 150 μL of M-PER (available from PIERCE).
Quantitative determination of total glutathione was performed using 100 μL of the lysed cells. That is, 100 μL of lysed cell extract, 50 μL of 0.1 mol/L phosphate buffer solution, 25 μL of 2 mmol/L NADPH, and 25 μL of 3.2 unit/mL glutathione reductase were added to a 96-well plate and heated at 37° C. for 10 minutes, then 25 μL of 10 mmol/L 5,5′-dithiobis(2-nitrobenzoic acid) was added, and the absorbance at a wavelength of 412 nm was measured until 5 minutes later to determine ΔOD/min. The total glutathione concentration was calculated based on a calibration curve created using oxidized glutathione (available from FUJIFILM Wako Pure Chemical Corporation). After correcting the obtained value to the glutathione value per total protein amount, the glutathione production promotion rate (%) was calculated based on the following equation.
Terms in the equation represent the following respective ones. • A: Glutathione amount per total protein amount without sample addition • B: Glutathione amount per total protein amount with test sample addition

Row | Compound | Melanin production suppression rate (B16 melanoma cells; 250 μmol/L) [%] | Melanin production suppression rate (B16 melanoma cells; 1000 μmol/L) [%] | TGM1 mRNA expression promotion rate (TGM1 mRNA; 25 μmol/L) [%] | TGM1 mRNA expression promotion rate (TGM1 mRNA; 100 μmol/L) [%] | Glutathione production promotion rate ([1]; 31.2 μmol/L) [%] | Glutathione production promotion rate ([1]; 125 μmol/L) [%] | Glutathione production promotion rate ([1]; 500 μmol/L) [%] | TGM1 mRNA expression promotion rate (TGM1 mRNA; 6.25 μmol/L) [%] | Melanin production suppression rate (B16 melanoma cells; 62.5 μmol/L) [%]
1 | O=C(O)CCc1ccccc1 [Sample 3, 3-phenylpropionic acid] | 46.2 | 57.0 | 218.5 | 174.9 | 133.9 | 124.6 | 119.2 |  | 
2 | O=C(O)CCc1ccc(O)c(O)c1 [Sample 1, 3,4-Dihydroxyhydrocinnamic acid] | 63.8 |  | 528.6 | 1617.1 | 123.9 | 124.8 | 113.4 | 214.6 | 
3 | O=C(O)CCc1ccc(O)cc1 [Sample 2, 3-(4-Hydroxyphenyl)propionic acid] | 40.2 | 69.5 |  | 160.8 | 119.2 | 118.1 |  |  | 8.5
